≈ marks a conversion by molar mass, not a printed value. Read-outs that look alike come from different tables or passages of the source.
Assays:
C. tropicalis 98-234 = assay: In vitro MIC susceptibility testing, broth microdilution; format: cell-based, Candida tropicalis; details: for MIC: read-out: MIC C. tropicalis 98-234
Procedure: (§1) In vitro MIC susceptibility testing. […] Six untreated media controls were included on each plate. The plates were incubated at 33° C. for 24 hours. The MICs were determined as the lowest concentration that inhibited visible growth. The MICs were read at 24.

C. albicans K-1 = assay: as above; format: cell-based, Candida albicans; details: for MIC: Candida albicans, read-out: MIC C. albicans K-1
Procedure: as §1

C. glabrata 4720 = assay: as above; format: cell-based, Candida glabrata; details: for MIC: read-out: MIC C. glabrata 4720
Procedure: as §1

C. auris B 11211 = assay: as above; format: cell-based, Candida auris; details: for MIC: Candidozyma auris, read-out: MIC C. auris B11211
Procedure: In vitro MIC susceptibility testing. Turbinmicin analogs of the present disclosure were tested for antifungal activity against four Candida isolates, C. albicans K-1, C. tropicalis 98-234, C. auris B 11211, and C. glabrata 4720, and MICs were determined using a broth microdilution method for yeasts. A turbinmicin analog was dissolved in DMSO, serially diluted to 10 concentrations (0.125-64 μg/mL), and tested in a 96-well plate in RPMI medium. […] Six untreated media controls were included on each plate. The plates were incubated at 33° C. for 24 hours. The MICs were determined as the lowest concentration that inhibited visible growth. The MICs were read at 24.

[1] = system: four Candida isolates, C. albicans K-1, C. tropicalis 98-234, C. auris B 11211, and C. glabrata 4720; assay: In vitro MIC susceptibility testing, positive control over the isolates; format: cell-based; details: RPMI medium, 33° C., 24 hours
Procedure: In vitro MIC susceptibility testing. Turbinmicin analogs of the present disclosure were tested for antifungal activity against four Candida isolates, C. albicans K-1, C. tropicalis 98-234, C. auris B 11211, and C. glabrata 4720, and MICs were determined using a broth microdilution method for yeasts. A turbinmicin analog was dissolved in DMSO, serially diluted to 10 concentrations (0.125-64 μg/mL), and tested in a 96-well plate in RPMI medium. Amphotericin B was used as a positive control and the MICs range were 0.25-1.5 μg/mL. Six untreated media controls were included on each plate. The plates were incubated at 33° C. for 24 hours. The MICs were determined as the lowest concentration that inhibited visible growth. The MICs were read at 24. Results are shown in Table 1 for turbinmicin analog activity against various fungi, including drug-resistant fungi.

[2] = Candida tropicalis, 98234, 24 h
[3] = Nakaseomyces glabratus, 4720, 24 h
[4] = Candida tropicalis, 98234, RPMI medium, 33° C., 24 hours, lowest concentration that inhibited visible growth
[5] = K1, RPMI medium, 33° C., 24 hours, lowest concentration that inhibited visible growth
[6] = Nakaseomyces glabratus, 4720, RPMI medium, 33° C., 24 hours, lowest concentration that inhibited visible growth
[7] = B11211, multidrug-resistant clinical isolate, RPMI medium, 33° C., 24 hours, lowest concentration that inhibited visible growth
[8] = RPMI medium, 33° C., 24 hours, lowest concentration that inhibited visible growth

Molecule	MIC (C. tropicalis 98-234; [2])	MIC (C. albicans K-1; K1, 24 h)	MIC (C. glabrata 4720; [3])	MIC (C. auris B 11211; B11211, 24 h)	other results
C/C=C/C=C/C=C/C(=O)O[C@@H]1C=CC[C@H]2C(=NCCN3CCCC3)c3c(O)c4c5c(c3O[C@H]12)OCO[C@@H]5C[C@@H]1C(=O)c2cc(C)[nH]c(=O)c2C(=O)[C@]41O [Compound T19]	0.38 mg/L (≈ 0.525 µM)	0.5 mg/L (≈ 0.691 µM)	0.5 mg/L (≈ 0.691 µM)	0.25 mg/L (≈ 0.345 µM)	
C/C=C/C=C/C=C/C(=O)O[C@@H]1C=CC[C@H]2C(=NCCN3CCN(C)CC3)c3c(O)c4c5c(c3O[C@H]12)OCO[C@@H]5C[C@@H]1C(=O)c2cc(C)[nH]c(=O)c2C(=O)[C@]41O [Compound T26]					MIC (C. tropicalis 98-234; [4]): 0.05 mg/L (≈ 0.0664 µM); MIC (C. albicans K-1; [5]): 0.5 mg/L (≈ 0.664 µM); MIC (C. glabrata 4720; [6]): 0.5 mg/L (≈ 0.664 µM); MIC (C. auris B 11211; [7]): 0.03 mg/L (≈ 0.0399 µM)
C/C=C/C=C/C=C/C(=O)O[C@@H]1C=CC[C@H]2C(=NCCN3CCS(=O)(=O)CC3)c3c(O)c4c5c(c3O[C@H]12)OCO[C@@H]5C[C@@H]1C(=O)c2cc(C)[nH]c(=O)c2C(=O)[C@]41O [Compound T24]	1 mg/L (≈ 1.27 µM)	0.75 mg/L (≈ 0.952 µM)	1 mg/L (≈ 1.27 µM)	0.28 mg/L (≈ 0.355 µM)	
Turbinmicin [reference compound]					MIC C. tropicalis 98-234 (C. tropicalis 98-234; [8]): 0.25 mg/L; MIC C. albicans K-1 (C. albicans K-1; [8]): 0.06 mg/L; MIC C. glabrata 4720 (C. glabrata 4720; [8]): 0.13 mg/L; MIC C. auris B11211 (C. auris B 11211; multidrug-resistant clinical isolate, RPMI medium, 33° C., 24 hours, lowest concentration that inhibited visible growth): 0.05 mg/L
C/C=C/C=C/C=C/C(=O)O[C@@H]1C=CC[C@H]2C(=NCCCNC)c3c(O)c4c5c(c3O[C@H]12)OCO[C@@H]5C[C@@H]1C(=O)c2cc(C)[nH]c(=O)c2C(=O)[C@]41O [Compound T18]	0.75 mg/L (≈ 1.07 µM)	1 mg/L (≈ 1.43 µM)	0.5 mg/L (≈ 0.717 µM)	0.38 mg/L (≈ 0.545 µM)	
C/C=C/C=C/C=C/C(=O)O[C@@H]1C=CC[C@H]2C(=NCCCCCN3CCOCC3)c3c(O)c4c5c(c3O[C@H]12)OCO[C@@H]5C[C@@H]1C(=O)c2cc(C)[nH]c(=O)c2C(=O)[C@]41O [Compound T27]	2 mg/L (≈ 2.56 µM)	1 mg/L (≈ 1.28 µM)	1 mg/L (≈ 1.28 µM)	0.5 mg/L (≈ 0.64 µM)	
C=CC/N=C1/c2c(O)c3c4c(c2O[C@@H]2[C@H](OC(=O)/C=C/C=C/C=C/C)C=CC[C@@H]12)OCO[C@@H]4C[C@@H]1C(=O)c2cc(C)[nH]c(=O)c2C(=O)[C@]31O [Compound T5]	4 mg/L (≈ 6 µM)	2 mg/L (≈ 3 µM)	4 mg/L (≈ 6 µM)	2 mg/L (≈ 3 µM)	
C/C=C/C=C/C=C/C(=O)O[C@@H]1C=CC[C@H]2/C(=N/C)c3c(O)c4c5c(c3O[C@H]12)OCO[C@@H]5C[C@@H]1C(=O)c2cc(C)[nH]c(=O)c2C(=O)[C@]41O [Compound T12]	1 mg/L (≈ 1.56 µM)	1 mg/L (≈ 1.56 µM)	0.5 mg/L (≈ 0.78 µM)	> 4 mg/L	
C/C=C/C=C/C=C/C(=O)O[C@@H]1C=CC[C@H]2/C(=N\C(C)CN3CCOCC3)c3c(O)c4c5c(c3O[C@H]12)OCO[C@@H]5C[C@@H]1C(=O)c2cc(C)[nH]c(=O)c2C(=O)[C@]41O (stereo partly drawn) [Compound T25]	1 mg/L (≈ 1.33 µM)	0.5 mg/L (≈ 0.663 µM)	0.5 mg/L (≈ 0.663 µM)	0.25 mg/L (≈ 0.332 µM)	
C/C=C/C=C/C=C/C(=O)O[C@@H]1C=CC[C@H]2/C(=N/CCO)c3c(O)c4c5c(c3O[C@H]12)OCO[C@@H]5C[C@@H]1C(=O)c2cc(C)[nH]c(=O)c2C(=O)[C@]41O [Compound T7]	> 4 mg/L	> 4 mg/L	> 4 mg/L	> 4 mg/L	
C#CC/N=C1\c2c(O)c3c4c(c2O[C@@H]2[C@H](OC(=O)/C=C/C=C/C=C/C)C=CC[C@@H]12)OCO[C@@H]4C[C@@H]1C(=O)c2cc(C)[nH]c(=O)c2C(=O)[C@]31O [Compound T15]	> 4 mg/L	> 4 mg/L	> 4 mg/L	> 4 mg/L	
C[C@@H]1[C@H](O)[C@@H](C)/C=C/C=C/C=C/C=C/C=C/C=C/C=C/[C@H](O[C@@H]2O[C@H](C)[C@@H](O)[C@H](N)[C@@H]2O)C[C@@H]2O[C@](O)(C[C@@H](O)C[C@@H](O)[C@H](O)CC[C@@H](O)C[C@@H](O)CC(=O)O[C@H]1C)C[C@H](O)[C@H]2C(=O)O [Amphotericin B]					MICs range (positive control) [1]: 0.25 to 1.5 µg/mL
C/C=C/C=C/C=C/C(=O)O[C@@H]1C=CC[C@H]2/C(=N/CCN(C)C)c3c(O)c4c5c(c3O[C@H]12)OCO[C@@H]5C[C@@H]1C(=O)c2cc(C)[nH]c(=O)c2C(=O)[C@]41O [Compound T8]	0.13 mg/L (≈ 0.186 µM)	0.13 mg/L (≈ 0.186 µM)	0.25 mg/L (≈ 0.358 µM)	0.25 mg/L (≈ 0.358 µM)	
C/C=C/C=C/C=C/C(=O)O[C@@H]1C=CC[C@H]2C(=NCCCN3CCOCC3)c3c(O)c4c5c(c3O[C@H]12)OCO[C@@H]5C[C@@H]1C(=O)c2cc(C)[nH]c(=O)c2C(=O)[C@]41O [Compound T23]					MIC (C. tropicalis 98-234; [4]): 1 mg/L (≈ 1.33 µM); MIC (C. albicans K-1; [5]): 1 mg/L (≈ 1.33 µM); MIC (C. glabrata 4720; [6]): 1 mg/L (≈ 1.33 µM); MIC (C. auris B 11211; [7]): 0.63 mg/L (≈ 0.836 µM)
C/C=C/C=C/C=C/C(=O)O[C@@H]1C=CC[C@H]2/C(=N/CCc3ccccn3)c3c(O)c4c5c(c3O[C@H]12)OCO[C@@H]5C[C@@H]1C(=O)c2cc(C)[nH]c(=O)c2C(=O)[C@]41O [Compound T13]	> 4 mg/L	> 4 mg/L	> 4 mg/L	> 4 mg/L	
C/C=C/C=C/C=C/C(=O)O[C@@H]1C=CC[C@H]2/C(=N/CCN3CCCCC3)c3c(O)c4c5c(c3O[C@H]12)OCO[C@@H]5C[C@@H]1C(=O)c2cc(C)[nH]c(=O)c2C(=O)[C@]41O [Compound T21]	0.25 mg/L (≈ 0.339 µM)	0.25 mg/L (≈ 0.339 µM)	0.25 mg/L (≈ 0.339 µM)	0.06 mg/L (≈ 0.0813 µM)	
C/C=C/C=C/C=C/C(=O)O[C@@H]1C=CC[C@H]2/C(=N/Cc3ccccc3)c3c(O)c4c5c(c3O[C@H]12)OCO[C@@H]5C[C@@H]1C(=O)c2cc(C)[nH]c(=O)c2C(=O)[C@]41O [Compound T10]					MIC (C. tropicalis 98-234; [4]): 4 mg/L (≈ 5.58 µM); MIC (C. albicans K-1; [5]): 2 mg/L (≈ 2.79 µM); MIC (C. glabrata 4720; [6]): 1 mg/L (≈ 1.4 µM); MIC (C. auris B 11211; [7]): 4 mg/L (≈ 5.58 µM)
C/C=C/C=C/C=C/C(=O)O[C@@H]1C=CC[C@H]2/C(=N/CCCC)c3c(O)c4c5c(c3O[C@H]12)OCO[C@@H]5C[C@@H]1C(=O)c2cc(C)[nH]c(=O)c2C(=O)[C@]41O [Compound T6]					MIC (C. tropicalis 98-234; [4]): > 4 mg/L; MIC (C. albicans K-1; [5]): > 4 mg/L; MIC (C. glabrata 4720; [6]): > 4 mg/L; MIC (C. auris B 11211; [7]): > 4 mg/L
